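Growth conditions: 96-well plates. Treatment: test compound, 48 hours, 5 concentrations. Analysis: linear interpolation between bracketing concentrations; unreached endpoints set to highest concentration. GI50 is the concentration that inhibits growth by half. At the TGI there is no net growth.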
Key:
Assay in all cases: DTP human tumour cell line panel, 48 h
786-0 renal = test system: 786-0 renal
A498 renal = test system: A498 renal
A549 NSCLC = test system: A549 NSCLC
ACHN renal = test system: ACHN renal
BT-549 breast = test system: BT-549 breast
CAKI-1 renal = test system: CAKI-1 renal
CCRF-CEM leukemia = test system: CCRF-CEM leukemia
COLO 205 colon = test system: COLO 205 colon
DU-145 prostate = test system: DU-145 prostate
EKVX NSCLC = test system: EKVX NSCLC
HCC-2998 colon = test system: HCC-2998 colon
HCT-116 colon = test system: HCT-116 colon
HCT-15 colon = test system: HCT-15 colon
HL-60(TB) leukemia = test system: HL-60(TB) leukemia
HOP-62 NSCLC = test system: HOP-62 NSCLC
HOP-92 NSCLC = test system: HOP-92 NSCLC
HS 578T breast = test system: HS 578T breast
HT29 colon = test system: HT29 colon
IGROV1 ovarian = test system: IGROV1 ovarian
K-562 leukemia = test system: K-562 leukemia
KM12 colon = test system: KM12 colon
LOX IMVI melanoma = test system: LOX IMVI melanoma
M14 melanoma = test system: M14 melanoma
MALME-3M melanoma = test system: MALME-3M melanoma
MCF7 breast = test system: MCF7 breast
MDA-MB-231 breast = test system: MDA-MB-231 breast
MDA-MB-435 = test system: MDA-MB-435
MOLT-4 leukemia = test system: MOLT-4 leukemia
NCI-H226 lung = test system: NCI-H226 lung
NCI-H23 lung = test system: NCI-H23 lung
NCI-H460 lung = test system: NCI-H460 lung
NCI-H522 lung = test system: NCI-H522 lung
NCI/ADR-RES ovarian = test system: NCI/ADR-RES ovarian
OVCAR-3 ovarian = test system: OVCAR-3 ovarian
OVCAR-4 ovarian = test system: OVCAR-4 ovarian
OVCAR-5 ovarian = test system: OVCAR-5 ovarian
OVCAR-8 ovarian = test system: OVCAR-8 ovarian
PC-3 prostate = test system: PC-3 prostate
RPMI-8226 leukemia = test system: RPMI-8226 leukemia
RXF 393 renal = test system: RXF 393 renal
SF-268 CNS = test system: SF-268 CNS
SF-295 CNS = test system: SF-295 CNS
SF-539 CNS = test system: SF-539 CNS
SK-MEL-2 melanoma = test system: SK-MEL-2 melanoma
SK-MEL-28 melanoma = test system: SK-MEL-28 melanoma
SK-MEL-5 melanoma = test system: SK-MEL-5 melanoma
SK-OV-3 ovarian = test system: SK-OV-3 ovarian
SN12C renal = test system: SN12C renal
SNB-19 CNS = test system: SNB-19 CNS
SNB-75 CNS = test system: SNB-75 CNS
SR leukemia = test system: SR leukemia
SW-620 colon = test system: SW-620 colon
T-47D breast = test system: T-47D breast
TK-10 renal = test system: TK-10 renal
U251 CNS = test system: U251 CNS
UACC-257 melanoma = test system: UACC-257 melanoma
UACC-62 melanoma = test system: UACC-62 melanoma
UO-31 renal = test system: UO-31 renal

SMILES: Oc1[nH]c2ccc(Cl)cc2c1/C=c1/ccc2c(c1)N=C(c1ccc(C(F)(F)F)cc1)N=2
- GI50 (786-0 renal): 1.75 µM
- TGI (786-0 renal): 3.31 µM
- GI50 (A498 renal): 1.32 µM
- TGI (A498 renal): 4.17 µM
- GI50 (A549 NSCLC): 3 µM
- TGI (A549 NSCLC): 10.8 µM
- GI50 (ACHN renal): 3.24 µM
- TGI (ACHN renal): 15.4 µM
- GI50 (BT-549 breast): 1.87 µM
- TGI (BT-549 breast): 4.75 µM
- GI50 (CAKI-1 renal): 2.74 µM
- TGI (CAKI-1 renal): 9.55 µM
- GI50 (CCRF-CEM leukemia): 2.43 µM
- TGI (CCRF-CEM leukemia): 6.96 µM
- GI50 (COLO 205 colon): 2.1 µM
- TGI (COLO 205 colon): 4.13 µM
- GI50 (DU-145 prostate): 3.12 µM
- TGI (DU-145 prostate): 10.4 µM
- GI50 (EKVX NSCLC): 3.16 µM
- TGI (EKVX NSCLC): 18.3 µM
- GI50 (HCC-2998 colon): 2.1 µM
- TGI (HCC-2998 colon): 4.81 µM
- GI50 (HCT-116 colon): 1.98 µM
- TGI (HCT-116 colon): 5.02 µM
- GI50 (HCT-15 colon): 2.64 µM
- TGI (HCT-15 colon): 8.91 µM
- GI50 (HL-60(TB) leukemia): 2.61 µM
- TGI (HL-60(TB) leukemia): 5.55 µM
- GI50 (HOP-62 NSCLC): 2.28 µM
- TGI (HOP-62 NSCLC): 4.78 µM
- GI50 (HOP-92 NSCLC): 1.68 µM
- TGI (HOP-92 NSCLC): 4.35 µM
- GI50 (HS 578T breast): 2.4 µM
- TGI (HS 578T breast): 6.86 µM
- GI50 (HT29 colon): 1.78 µM
- TGI (HT29 colon): 3.94 µM
- GI50 (IGROV1 ovarian): 3.35 µM
- TGI (IGROV1 ovarian): 14.2 µM
- GI50 (K-562 leukemia): 2.6 µM
- TGI (K-562 leukemia): 7.73 µM
- GI50 (KM12 colon): 2.08 µM
- TGI (KM12 colon): 7.63 µM
- GI50 (LOX IMVI melanoma): 1.77 µM
- TGI (LOX IMVI melanoma): 3.42 µM
- GI50 (M14 melanoma): 1.67 µM
- TGI (M14 melanoma): 3.34 µM
- GI50 (MALME-3M melanoma): 2.34 µM
- TGI (MALME-3M melanoma): 6.57 µM
- GI50 (MCF7 breast): 2.25 µM
- TGI (MCF7 breast): 7.64 µM
- GI50 (MDA-MB-231 breast): 1.75 µM
- TGI (MDA-MB-231 breast): 3.63 µM
- GI50 (MDA-MB-435): 1.9 µM
- TGI (MDA-MB-435): 4.7 µM
- GI50 (MOLT-4 leukemia): 2.41 µM
- TGI (MOLT-4 leukemia): 6.19 µM
- GI50 (NCI-H226 lung): 3.13 µM
- TGI (NCI-H226 lung): 11.6 µM
- GI50 (NCI-H23 lung): 3.08 µM
- TGI (NCI-H23 lung): 13.6 µM
- GI50 (NCI-H460 lung): 1.88 µM
- TGI (NCI-H460 lung): 3.82 µM
- GI50 (NCI-H522 lung): 1.66 µM
- TGI (NCI-H522 lung): 3.24 µM
- GI50 (NCI/ADR-RES ovarian): 2.6 µM
- TGI (NCI/ADR-RES ovarian): 7.77 µM
- GI50 (OVCAR-3 ovarian): 1.56 µM
- TGI (OVCAR-3 ovarian): 3.21 µM
- GI50 (OVCAR-4 ovarian): 2.73 µM
- TGI (OVCAR-4 ovarian): 11.4 µM
- GI50 (OVCAR-5 ovarian): 3.1 µM
- TGI (OVCAR-5 ovarian): 12.3 µM
- GI50 (OVCAR-8 ovarian): 3.17 µM
- TGI (OVCAR-8 ovarian): 11.4 µM
- GI50 (PC-3 prostate): 2.29 µM
- TGI (PC-3 prostate): 7.58 µM
- GI50 (RPMI-8226 leukemia): 2.21 µM
- TGI (RPMI-8226 leukemia): 5.44 µM
- GI50 (RXF 393 renal): 1.88 µM
- TGI (RXF 393 renal): 3.76 µM
- GI50 (SF-268 CNS): 2.72 µM
- TGI (SF-268 CNS): 7.64 µM
- GI50 (SF-295 CNS): 1.87 µM
- TGI (SF-295 CNS): 5.04 µM
- GI50 (SF-539 CNS): 2.51 µM
- TGI (SF-539 CNS): 6.65 µM
- GI50 (SK-MEL-2 melanoma): 1.97 µM
- TGI (SK-MEL-2 melanoma): 3.79 µM
- GI50 (SK-MEL-28 melanoma): 2.35 µM
- TGI (SK-MEL-28 melanoma): 6.71 µM
- GI50 (SK-MEL-5 melanoma): 1.7 µM
- TGI (SK-MEL-5 melanoma): 3.31 µM
- GI50 (SK-OV-3 ovarian): 4.19 µM
- TGI (SK-OV-3 ovarian): 13.9 µM
- GI50 (SN12C renal): 2.37 µM
- TGI (SN12C renal): 6.72 µM
- GI50 (SNB-19 CNS): 3.12 µM
- TGI (SNB-19 CNS): 17 µM
- GI50 (SNB-75 CNS): 2.03 µM
- TGI (SNB-75 CNS): 7.51 µM
- GI50 (SR leukemia): 2.43 µM
- TGI (SR leukemia): 5.38 µM
- GI50 (SW-620 colon): 1.97 µM
- TGI (SW-620 colon): 4.1 µM
- GI50 (T-47D breast): 2.86 µM
- TGI (T-47D breast): 9.23 µM
- GI50 (TK-10 renal): 3.62 µM
- TGI (TK-10 renal): 9.75 µM
- GI50 (U251 CNS): 1.74 µM
- TGI (U251 CNS): 3.47 µM
- GI50 (UACC-257 melanoma): 2.08 µM
- TGI (UACC-257 melanoma): 4.93 µM
- GI50 (UACC-62 melanoma): 1.71 µM
- TGI (UACC-62 melanoma): 4.06 µM
- GI50 (UO-31 renal): 2.56 µM
- TGI (UO-31 renal): 9.81 µM
